Laboratory results: patent US10035778B2, “Meta-azacyclic amino benzoic acid derivatives as pan integrin antagonists” (Saint Louis University, priority 2015, dated 2018)

Legend:
[1] = molecular target: Recombinant human integrin αvβ1 (Homo sapiens (Human), UniProt P05556+P06756); assay: Solid Phase Receptor Assay (SPRA) for αvβ1 function; format: binding; details: fibronectin-coated plate
Description: 2. Solid Phase Receptor Assay (SPRA) for αvβ1 Function
Purified human fibronectin (R&D Systems, 1918-FN) diluted to 5 μg/mL in TBS+ buffer (25 mM Tris pH 7.4, 137 mM NaCl, 2.7 mM KCl, 1 mM CaCl2, 1 mM MgCl2, 1 mM MnCl2) was added to wells (50 μL/well) of a 96-well half-well transparent microtiter plate (Greiner 675061) and incubated overnight at 4° C. Wells were washed 3 times with 150 μL TBS+ and 150 μL of blocking buffer (TBS+ with 1% bovine serum albumin, Sigma A7906) were added. The plate was incubated for 1 hr at 37° C. and then washed 3× with TBS+ buffer. Recombinant human integrin αvβ1 (R&D Systems. 6579-AV) was diluted to 2.0 μg/mL in TBS+/0.1% bovine serum albumin. Compounds were diluted 1:100 into the integrin solution and 50 μL added to empty wells of the washed fibronectin-coated plate according to a standard template with each sample repeated in triplicate. After incubation for two hours at room temperature, the plate was washed 3× with 150 μL of TBS+ buffer. To each well, 50 μL of biotinylated anti-αv antibody (R&D Systems, BAF1219) at 1 μg/mL in TBS+/0.1% BSA were added and the plate covered and incubated for 1 hr at room temperature. After washing the plate 3× with 150 μL of TBS+ buffer, 50 μL of streptavidin-conjugated horseradish peroxidase (R&D Systems, DY998) diluted in TBS+ blocking buffer were added to the wells and the plate incubated for 20 min at room temperature. The plate was washed 3× with TBS+ buffer followed by 50 μL of TMB substrate (Sigma, T4444) added to each well and the plate incubated for 20 min at room temperature. Plates were read by colorimetric detection at 650 nm wavelength using a Tecan Safire II plate reader. Concentration-response curves were constructed by non-linear regression (best fit) analysis, and IC50 values were calculated for each compound.

[2] = IV cassette pharmacokinetic study in male Sprague-Dawley rats (Saint Louis University); format: in vivo; details: plasma; male Sprague-Dawley rat, 1 mg/kg IV cassette, sampling to 24 h; read-out: plasma t½ after 1 mg/kg IV bolus dose in rat (converted)
Description: (§1) A minimally sufficient volume of dimethylsulfoxide (DMSO) was added to each test compound to achieve solubilization. For intravenous (IV) delivery, compounds were then formulated as solutions in glycerol formal: saline (either 20:80 or 40:60 v/v) (Sigma Chemicals, St. Louis). For oral (PO) administration, compounds were formulated with 0.5% methylcellulose. Five to six compound solutions were combined into a singled mixed solution for IV and PO cassette administration with final DMSO concentrations <0.6% or <1.2%, for the IV and PO cassettes, respectively. Analytes were detected in test samples using an LC/MS/MS (liquid chromatography/mass spectrometry) system consisting of an LC-20AD pump (Shimadzu, Kyoto, Japan), an HTC PAL autosampler (Leap technologies, Carrboro, N.C.), and a Sciex API-4000 mass spectrometer in ESI mode (AB Sciex, Foster City, Calif.). An Amour C18 reverse phase column (Analytical Sales and Services, Pompton Plains, N.J.) was used for chromatographic separation.
(§2) Pharmacokinetic (PK) studies conducted at Saint Louis University used male Sprague-Dawley rats with an initial body weight of 200 to 220 g. IV PK studies were performed with the following compounds: Examples 1-3 and 5-17 and comparison compounds C12-C18, C29, and C30. Animals were allowed free access to food and water. Rats were individually housed and connected to jugular vein catheters. Each cassette formulation was administered intravenously to two rats (1 mL/kg body weight). Each cassette formulation contained 5-6 compounds at 1 mg/kg in either 20:80 or 40/60 glycerol formal/saline (v/v). Blood was collected manually via the catheter into lithium-heparin tubes at 0.017, 0.083, 0.5, 1, 2, 4, 6 and 24 hours post-dose. Animals were euthanized with CO2 at the end of the experiment.
(§3) Internal standard was added to all samples at 200 ng/mL (final), as well as 150 μL of acetonitrile. Plasma samples (50 μL total volume) were diluted with control nave rat plasma as appropriate to bring the sample measurement into the linear dynamic range of the standard curve. The samples were capped and mixed on a multi-plate vortexer for 5 minutes and centrifuged for 5 minutes at 3200 rmp. The supernant was transferred to 96-well sample plate and capped for LC/MS/MS analysis. Compounds were optimized and monitored for their respective MRM transitions. The mobile phases consisted of 0.1% formic acid (aqueous) and 100% acetonitrile (organic) with an Amour C18 reverse phase column (2.1×30 mm, 5 micron) at a flow rate of 0.35 mL/min. The starting phase was 10% acetonitrile for the 0.9 minutes then increased to 90% acetonitrile over 0.4 minutes, and was maintained for an additional 0.2 minutes before returning to 10% acetonitrile over 0.4 minutes. The 10% acetonitrile was held for an additional 1.6 minutes. Peak areas were integrated using Analyst 1.5.1 (AB Sciex, Foster City, Calif.).

[3] = Oral (PO) cassette pharmacokinetic study in male Sprague-Dawley rats; format: in vivo; details: plasma; male Sprague-Dawley rat, 2 mg/kg oral gavage cassette in 0.5% methylcellulose; read-out: AUC (0-inf) after a 2 mg/kg PO dose in rat
Description: as §1, §2
Oral PK studies were conducted with the following compounds: Examples 1-3 and 5-17 and comparison compounds C12, C14-16 and C29-30. The PO cassette formulations were administered via oral gavage to two rats (10 mL/kg body weight) containing 5-6 compounds per cassette. The oral dose was administered at 2 mg/kg/compound in 0.5% methylcellulose. Blood collection time points were 0.25, 0.5, 1, 2, 4, 6 and 24 hours post-dose into lithium-heparin tubes. Animals were euthanized with CO2 at the end of the experiment.
as §3

Recombinant human integrin αvβ1, sequence (P06756 31-992): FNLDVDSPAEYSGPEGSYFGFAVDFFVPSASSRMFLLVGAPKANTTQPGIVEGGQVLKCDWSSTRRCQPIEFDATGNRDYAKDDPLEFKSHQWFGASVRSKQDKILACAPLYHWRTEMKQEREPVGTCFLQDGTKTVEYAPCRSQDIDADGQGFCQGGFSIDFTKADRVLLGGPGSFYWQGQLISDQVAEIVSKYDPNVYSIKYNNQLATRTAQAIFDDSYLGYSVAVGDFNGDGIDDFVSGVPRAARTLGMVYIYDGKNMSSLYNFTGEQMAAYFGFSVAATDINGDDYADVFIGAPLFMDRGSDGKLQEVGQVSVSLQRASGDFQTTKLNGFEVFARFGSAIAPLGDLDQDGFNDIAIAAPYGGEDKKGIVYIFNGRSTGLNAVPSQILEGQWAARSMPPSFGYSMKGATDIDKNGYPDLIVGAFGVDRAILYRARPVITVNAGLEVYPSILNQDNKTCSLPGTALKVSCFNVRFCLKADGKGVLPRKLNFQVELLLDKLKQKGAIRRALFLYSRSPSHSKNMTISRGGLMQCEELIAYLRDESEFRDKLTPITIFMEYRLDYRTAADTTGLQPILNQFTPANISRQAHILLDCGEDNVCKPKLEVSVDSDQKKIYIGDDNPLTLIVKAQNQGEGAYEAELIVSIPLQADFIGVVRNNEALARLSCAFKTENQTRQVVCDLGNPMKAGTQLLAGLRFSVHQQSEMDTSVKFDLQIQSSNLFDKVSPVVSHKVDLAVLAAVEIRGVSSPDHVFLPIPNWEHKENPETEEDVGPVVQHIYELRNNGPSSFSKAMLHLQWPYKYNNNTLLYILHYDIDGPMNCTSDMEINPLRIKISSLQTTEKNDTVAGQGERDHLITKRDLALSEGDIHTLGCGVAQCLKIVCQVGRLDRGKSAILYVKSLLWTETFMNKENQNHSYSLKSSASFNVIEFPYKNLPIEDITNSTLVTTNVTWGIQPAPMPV
Recombinant human integrin αvβ1, sequence (P05556 21-728): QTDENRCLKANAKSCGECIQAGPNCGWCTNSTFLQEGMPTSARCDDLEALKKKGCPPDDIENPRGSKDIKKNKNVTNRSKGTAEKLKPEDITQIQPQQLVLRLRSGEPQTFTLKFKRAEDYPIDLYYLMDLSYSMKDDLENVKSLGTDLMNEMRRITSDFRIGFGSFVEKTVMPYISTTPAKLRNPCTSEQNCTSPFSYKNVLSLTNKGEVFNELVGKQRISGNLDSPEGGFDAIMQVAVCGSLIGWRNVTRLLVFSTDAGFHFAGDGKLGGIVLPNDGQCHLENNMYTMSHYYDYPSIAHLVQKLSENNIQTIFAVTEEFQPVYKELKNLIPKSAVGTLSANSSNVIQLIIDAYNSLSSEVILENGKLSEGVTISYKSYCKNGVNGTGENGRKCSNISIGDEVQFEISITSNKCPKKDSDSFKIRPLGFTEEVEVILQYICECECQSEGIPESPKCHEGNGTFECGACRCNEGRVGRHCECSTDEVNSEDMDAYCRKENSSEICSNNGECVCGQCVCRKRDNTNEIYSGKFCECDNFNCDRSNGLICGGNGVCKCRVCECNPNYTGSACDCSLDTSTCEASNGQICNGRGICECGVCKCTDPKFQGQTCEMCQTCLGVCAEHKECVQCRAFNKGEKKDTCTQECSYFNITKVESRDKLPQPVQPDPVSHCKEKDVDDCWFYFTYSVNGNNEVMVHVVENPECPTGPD

Compound	IC50 [1] [nM]	half-life [2] [h]	AUC(0-inf) [3] [ng·h/mL]
O=C(O)C[C@H](NC(=O)CNC(=O)c1cncc(NC2=NCC(O)CN2)c1)c1cc(Cl)cc(C(F)(F)F)c1 (stereo partly drawn) [Example 7]	1	4.6	3890
O=C(O)C[C@H](NC(=O)CNC(=O)c1cc(O)cc(NC2=NCC(O)CN2)c1)c1cc(Cl)cc(Cl)c1 (stereo partly drawn) [Example 15, (3S)-3-[3,5-dichloro-phenyl)-3-(2-(3-hydroxy-5-((5-hydroxy-1,4,5,6-tetrahydropyrimidin-2-yl)amino)benzamido)acetamido)propanoic acid]	4 ± 1	23.8	15600
Cc1cc(Br)cc([C@H](CC(=O)O)NC(=O)CNC(=O)c2cc(O)cc(NC3=NCC(O)CN3)c2)c1 (stereo partly drawn) [Example 11, (3S)-3-[3-bromo-5-methyl-phenyl)-3-(2-(3-hydroxy-5-((5-hydroxy-1,4,5,6-tetrahydropyrimidin-2-yl)amino)benzamido)acetamido)propanoic acid]	0.4	24	9140
O=C(O)C[C@H](NC(=O)CNC(=O)c1cc(O)cc(NC2=NCC(O)CN2)c1)c1cc(Cl)cc(C(F)F)c1 (stereo partly drawn) [Example 3, (3S)-3-[3-chloro-5-(difluoromethyl)phenyl)-3-(2-(3-hydroxy-5-((5-hydroxy-1,4,5,6-tetrahydropyrimidin-2-yl)amino)benzamido)acetamido]propanoic acid]	2	6.1	4870
O=C(O)C[C@H](NC(=O)CNC(=O)c1cncc(NC2=NCC(O)CN2)c1)c1cc(Br)cc(Br)c1 (stereo partly drawn) [Example 14, (3S)-3-(3,5-dibromophenyl)-3-[[2-[[5-[(5-hydroxy-1,4,5,6-tetrahydropyrimidin-2-yl)amino]pyridine-3-carbonyl]amino]acetyl]amino]propanoic acid]	0.7	34.2	6500
O=C(O)C[C@H](NC(=O)CNC(=O)c1cc(O)cc(NC2=NCC(O)CN2)c1)c1cc(Br)cc(C(F)F)c1 (stereo partly drawn) [Example 4, (3S)-3-[3-bromo-5-(difluoromethyl)phenyl)-3-(2-(3-hydroxy-5-((5-hydroxy-1,4,5,6-tetrahydropyrimidin-2-yl)amino)benzamido)acetamido]propanoic acid]	2		
O=C(O)C[C@H](NC(=O)CNC(=O)c1cc(O)cc(NC2=NCC(O)CN2)c1)c1cc(Cl)cc(Br)c1 (stereo partly drawn) [Example 6, (3S)-3-[3-bromo-5-chloro-phenyl)-3-(2-(3-hydroxy-5-((5-hydroxy-1,4,5,6-tetrahydropyrimidin-2-yl)amino)benzamido)acetamido]propanoic acid]	3	16.7	34400
O=C(O)C[C@H](NC(=O)CNC(=O)c1cncc(NC2=NCC(O)CN2)c1)c1cc(Br)cc(C(F)(F)F)c1 (stereo partly drawn) [Example 9, (3S)-3-[3-bromo-5-(trifluoromethyl)phenyl]-3-[[2-[[5-[(5-hydroxy-1,4,5,6-tetrahydropyrimidin-2-yl)amino]pyridine-3-carbonyl]amino]acetyl]amino]propanoic acid]	1	5.6	4120
O=C(O)C[C@H](NC(=O)CNC(=O)c1cncc(NC2=NCC(O)CN2)c1)c1cc(Cl)cc(Br)c1 (stereo partly drawn) [Example 8, (3S)-3-(3-bromo-5-chloro-phenyl)-3-[[2-[[5-[(5-hydroxy-1,4,5,6-tetrahydropyrimidin-2-yl)amino]pyridine-3-carbonyl]amino]acetyl]amino]propanoic acid]	1	23.9	4470
O=C(O)C[C@H](NC(=O)CNC(=O)c1cc(O)cc(NC2=NCC(O)CN2)c1)c1cc(Cl)cc(C(F)(F)F)c1 (stereo partly drawn) [Example 5, (3S)-3-[3-chloro-5-(trifluoromethyl)phenyl)-3-(2-(3-hydroxy-5-((5-hydroxy-1,4,5,6-tetrahydropyrimidin-2-yl)amino)benzamido)acetamido]propanoic acid]	2	6.6	11400
O=C(O)C[C@H](NC(=O)CNC(=O)c1cc(O)cc(NC2=NCC(O)CN2)c1)c1cc(C(F)(F)F)cc(C(F)(F)F)c1 (stereo partly drawn) [Example 10, (3S)-3-[3,5-bis(trifluoromethyl)phenyl)-3-(2-(3-hydroxy-5-((5-hydroxy-1,4,5,6-tetrahydropyrimidin-2-yl)amino)benzamido)acetamido]propanoic acid]	2 ± 1	3.9	13000
Cc1cc(Cl)cc([C@@H](CC(=O)O)NC(=O)CNC(=O)c2cccc(NC3=NCCN3)c2)c1O [Example C11, reference compound]	16 ± 4		

The next lines start with the values.

IC50 [1] [nM]	half-life [2] [h]	AUC(0-inf) [3] [ng·h/mL]	Compound
101			O=C(O)CC(NC(=O)CNC(=O)c1cc(O)cc(NC2=NCC(O)CN2)c1)c1cc(Br)cc(Br)c1O (stereo not drawn) [Example C7, reference compound]
17 ± 2			O=C(O)C[C@H](NC(=O)CNC(=O)c1cc(O)cc(NC2=NCC(O)CN2)c1)c1cc(Cl)cc(Br)c1O (stereo partly drawn) [Example C1, reference compound]
5			O=C(O)C[C@H](NC(=O)CNC(=O)c1cc(O)cc(NC2=NCC(O)CN2)c1)c1ccccc1 (stereo partly drawn) [Example C2, reference compound]
8 ± 6			Cc1ccc(O)c(C(CC(=O)O)NC(=O)CNC(=O)c2cc(O)cc(NC3=NCC(O)CN3)c2)c1 (stereo not drawn) [Example C6, reference compound]
13			Cc1ccc(O)c(C(CC(=O)O)NC(=O)CNC(=O)c2cccc(NC(=N)N)c2)c1 (stereo not drawn) [Example C8, reference compound]
14 ± 8			Cc1cc(Cl)cc([C@@H](CC(=O)O)NC(=O)CNC(=O)c2cc(O)cc(NC3=NCC(O)CN3)c2)c1O (stereo partly drawn) [Example C10, reference compound]
7			O=C(O)CC(NC(=O)CNC(=O)c1cc(O)cc(NC2=NCC(O)CN2)c1)c1cc(Cl)cc(Cl)c1O (stereo not drawn) [Example C3, reference compound]
5 ± 2			N=C(N)Nc1cccc(C(=O)NCC(=O)NC(CC(=O)O)c2cc(F)cc(C(F)(F)F)c2)c1 (stereo not drawn) [Example C9, reference compound]
10			Cc1cc(C)cc(C(CC(=O)O)NC(=O)CNC(=O)c2cccc(NC(=N)N)c2)c1 (stereo not drawn) [Example C4, reference compound]
17 ± 5			N=C(N)Nc1cccc(C(=O)NCC(=O)NC(CC(=O)O)c2ccccc2)c1 (stereo not drawn) [Example C5, reference compound]
